Experimental data reported in ChEMBL document CHEMBL1201862, “PubChem BioAssay data set” (2004).
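Following 48 hours of exposure in 96-well plates, responses at five concentrations were used to interpolate endpoints linearly. GI50 marks 50% less growth.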 Calls of active or inactive are those of the source. Rule as the data show it: active = GI50 up to about 1.1 µM and inactive = higher.

Assays:
Assay in all cases: inhibition of tumour cell growth, NCI panel, 48 h
[1] = test system: UO-31
[2] = test system: LOX IMVI
[3] = test system: A549
[4] = test system: OVCAR-8
[5] = test system: HCT-116
[6] = test system: NCI-H460
[7] = test system: M14
[8] = test system: IGROV-1
[9] = test system: COLO 205
[10] = test system: SF-268
[11] = test system: LXFL 529
[12] = test system: KM-20L2
[13] = test system: SW-620
[14] = test system: TK-10
[15] = test system: OVCAR-5
[16] = test system: NCI-H23
[17] = test system: CAKI-1
[18] = test system: DLD-1
[19] = test system: MOLT-4
[20] = test system: HL-60
[21] = test system: A498
[22] = test system: SK-MEL-5
[23] = test system: UACC-257
[24] = test system: SK-OV-3
[25] = test system: SNB-75
[26] = test system: SNB-78
[27] = test system: OVCAR-3
[28] = test system: SN12C
[29] = test system: DMS-114
[30] = test system: RXF 631
[31] = test system: HCC 2998
[32] = test system: HOP-62
[33] = test system: DMS-273
[34] = test system: HT-29
[35] = test system: HOP-18
[36] = test system: KM12
[37] = test system: K562
[38] = test system: U-251
[39] = test system: EKVX
[40] = test system: CCRF-CEM
[41] = test system: SK-MEL-2
[42] = test system: NCI-H522
[43] = test system: HOP-92
[44] = test system: RXF 393
[45] = test system: Malme-3M
[46] = test system: SF-539
[47] = test system: UACC-62
[48] = test system: M19-MEL
[49] = test system: SK-MEL-28
[50] = test system: HCT-15
[51] = test system: SNB-19
[52] = test system: 786-0
[53] = test system: SF-295
[54] = test system: OVCAR-4
[55] = test system: ACHN
[56] = test system: NCI-H226
[57] = test system: RPMI-8226
[58] = test system: XF498

CC1=CC(=O)N(c2c(C)cccc2Cl)C(C)N1 (configuration not stated)
GI50 [1]: > 100 µM (inactive) | GI50 [2]: > 100 µM (inactive) | GI50 [3]: > 100 µM (inactive) | GI50 [4]: > 100 µM (inactive) | GI50 [5]: > 100 µM (inactive) | GI50 [6]: > 100 µM (inactive) | GI50 [7]: > 100 µM (inactive) | GI50 [8]: > 100 µM (inactive) | GI50 [9]: > 100 µM (inactive) | GI50 [10]: > 100 µM (inactive) | GI50 [11]: > 100 µM (inactive) | GI50 [12]: > 100 µM (inactive) | GI50 [13]: > 100 µM (inactive) | GI50 [14]: > 100 µM (inactive) | GI50 [15]: > 100 µM (inactive) | GI50 [16]: > 100 µM (inactive) | GI50 [17]: > 100 µM (inactive) | GI50 [18]: > 100 µM (inactive) | GI50 [19]: > 100 µM (inactive) | GI50 [20]: > 100 µM (inactive) | GI50 [21]: > 100 µM (inactive) | GI50 [22]: > 100 µM (inactive) | GI50 [23]: > 100 µM (inactive) | GI50 [24]: > 100 µM (inactive) | GI50 [25]: > 100 µM (inactive) | GI50 [26]: > 100 µM (inactive) | GI50 [27]: > 100 µM (inactive) | GI50 [28]: > 100 µM (inactive) | GI50 [29]: > 100 µM (inactive) | GI50 [30]: > 100 µM (inactive) | GI50 [31]: > 100 µM (inactive) | GI50 [32]: > 100 µM (inactive) | GI50 [33]: > 100 µM (inactive) | GI50 [34]: > 100 µM (inactive) | GI50 [35]: > 100 µM (inactive) | GI50 [36]: > 100 µM (inactive) | GI50 [37]: > 100 µM (inactive) | GI50 [38]: > 100 µM (inactive) | GI50 [39]: > 100 µM (inactive) | GI50 [40]: > 100 µM (inactive) | GI50 [41]: > 100 µM (inactive) | GI50 [42]: > 100 µM (inactive) | GI50 [43]: > 100 µM (inactive) | GI50 [44]: > 100 µM (inactive) | GI50 [45]: > 100 µM (inactive) | GI50 [46]: > 100 µM (inactive) | GI50 [47]: > 100 µM (inactive) | GI50 [48]: > 100 µM (inactive) | GI50 [49]: > 100 µM (inactive) | GI50 [50]: > 100 µM | GI50 [51]: > 100 µM (inactive) | GI50 [52]: > 100 µM (inactive) | GI50 [53]: > 100 µM (inactive) | GI50 [54]: > 100 µM (inactive) | GI50 [55]: > 100 µM (inactive) | GI50 [56]: > 100 µM (inactive)

O=C(CCc1nnc(S)[nH]1)Nc1cc(Cl)c(Cl)cc1Cl
GI50 [1]: > 100 µM (inactive) | GI50 [2]: > 100 µM (inactive) | GI50 [3]: > 100 µM (inactive) | GI50 [4]: > 100 µM (inactive) | GI50 [5]: > 100 µM (inactive) | GI50 [6]: > 100 µM (inactive) | GI50 [7]: > 100 µM (inactive) | GI50 [8]: > 100 µM (inactive) | GI50 [9]: > 100 µM (inactive) | GI50 [10]: > 100 µM (inactive) | GI50 [11]: > 100 µM (inactive) | GI50 [12]: > 100 µM (inactive) | GI50 [13]: > 100 µM (inactive) | GI50 [14]: > 100 µM (inactive) | GI50 [15]: > 100 µM (inactive) | GI50 [16]: > 100 µM (inactive) | GI50 [17]: > 100 µM (inactive) | GI50 [19]: > 100 µM (inactive) | GI50 [20]: > 100 µM (inactive) | GI50 [21]: > 100 µM (inactive) | GI50 [22]: > 100 µM (inactive) | GI50 [23]: > 100 µM (inactive) | GI50 [24]: > 100 µM (inactive) | GI50 [25]: 25.4 µM (inactive) | GI50 [26]: > 100 µM (inactive) | GI50 [27]: > 100 µM (inactive) | GI50 [28]: > 100 µM (inactive) | GI50 [29]: > 100 µM (inactive) | GI50 [30]: > 100 µM (inactive) | GI50 [31]: > 100 µM (inactive) | GI50 [32]: > 100 µM (inactive) | GI50 [33]: > 100 µM (inactive) | GI50 [34]: > 100 µM (inactive) | GI50 [36]: > 100 µM (inactive) | GI50 [37]: > 100 µM (inactive) | GI50 [38]: > 100 µM (inactive) | GI50 [57]: > 100 µM (inactive) | GI50 [40]: > 100 µM (inactive) | GI50 [41]: > 100 µM (inactive) | GI50 [42]: > 100 µM (inactive) | GI50 [43]: > 100 µM (inactive) | GI50 [44]: > 100 µM (inactive) | GI50 [45]: > 100 µM (inactive) | GI50 [46]: > 100 µM (inactive) | GI50 [47]: > 100 µM (inactive) | GI50 [58]: > 100 µM (inactive) | GI50 [48]: > 100 µM (inactive) | GI50 [49]: > 100 µM (inactive) | GI50 [50]: > 100 µM | GI50 [51]: > 100 µM (inactive) | GI50 [52]: > 100 µM (inactive) | GI50 [53]: > 100 µM (inactive) | GI50 [54]: > 100 µM (inactive) | GI50 [55]: > 100 µM (inactive) | GI50 [56]: > 100 µM (inactive)

C/C(=N\NC(=O)C[N+](C)(C)C)c1sc(-c2cccnc2)nc1C
GI50 [1]: 41.2 µM (inactive) | GI50 [2]: > 100 µM (inactive) | GI50 [3]: > 100 µM (inactive) | GI50 [4]: > 100 µM (inactive) | GI50 [5]: > 100 µM (inactive) | GI50 [6]: > 100 µM (inactive) | GI50 [7]: > 100 µM (inactive) | GI50 [8]: > 100 µM (inactive) | GI50 [9]: > 100 µM (inactive) | GI50 [10]: > 100 µM (inactive) | GI50 [11]: 67 µM (inactive) | GI50 [12]: > 100 µM (inactive) | GI50 [13]: > 100 µM (inactive) | GI50 [14]: > 100 µM (inactive) | GI50 [15]: > 100 µM (inactive) | GI50 [16]: > 100 µM (inactive) | GI50 [18]: > 100 µM (inactive) | GI50 [19]: > 100 µM (inactive) | GI50 [20]: > 100 µM (inactive) | GI50 [22]: > 100 µM (inactive) | GI50 [23]: > 100 µM (inactive) | GI50 [24]: > 100 µM (inactive) | GI50 [25]: > 100 µM (inactive) | GI50 [26]: > 100 µM (inactive) | GI50 [27]: > 100 µM (inactive) | GI50 [29]: > 100 µM (inactive) | GI50 [30]: > 100 µM (inactive) | GI50 [31]: > 100 µM (inactive) | GI50 [32]: > 100 µM (inactive) | GI50 [33]: > 100 µM (inactive) | GI50 [34]: > 100 µM (inactive) | GI50 [36]: > 100 µM (inactive) | GI50 [37]: > 100 µM (inactive) | GI50 [38]: > 100 µM (inactive) | GI50 [57]: > 100 µM (inactive) | GI50 [39]: > 100 µM (inactive) | GI50 [40]: > 100 µM (inactive) | GI50 [41]: > 100 µM (inactive) | GI50 [42]: 42.7 µM (inactive) | GI50 [43]: 24.9 µM (inactive) | GI50 [44]: 52.1 µM (inactive) | GI50 [45]: > 100 µM (inactive) | GI50 [46]: > 100 µM (inactive) | GI50 [47]: > 100 µM (inactive) | GI50 [58]: > 100 µM (inactive) | GI50 [48]: > 100 µM (inactive) | GI50 [49]: > 100 µM (inactive) | GI50 [52]: > 100 µM (inactive) | GI50 [53]: > 100 µM (inactive) | GI50 [55]: > 100 µM (inactive) | GI50 [56]: > 100 µM (inactive)
